These results are taken from patent US20230087118A1, “IMIDAZO[1,2-a][sequence] DERIVATIVES AND THEIR USE IN THE TREATMENT OF DISEASE” (priority 2019, published 2023).

One assay deals with T1, IRAK4 (Homo sapiens, UniProt Q9NWZ3).
T1 sequence (Q9NWZ3 1-460): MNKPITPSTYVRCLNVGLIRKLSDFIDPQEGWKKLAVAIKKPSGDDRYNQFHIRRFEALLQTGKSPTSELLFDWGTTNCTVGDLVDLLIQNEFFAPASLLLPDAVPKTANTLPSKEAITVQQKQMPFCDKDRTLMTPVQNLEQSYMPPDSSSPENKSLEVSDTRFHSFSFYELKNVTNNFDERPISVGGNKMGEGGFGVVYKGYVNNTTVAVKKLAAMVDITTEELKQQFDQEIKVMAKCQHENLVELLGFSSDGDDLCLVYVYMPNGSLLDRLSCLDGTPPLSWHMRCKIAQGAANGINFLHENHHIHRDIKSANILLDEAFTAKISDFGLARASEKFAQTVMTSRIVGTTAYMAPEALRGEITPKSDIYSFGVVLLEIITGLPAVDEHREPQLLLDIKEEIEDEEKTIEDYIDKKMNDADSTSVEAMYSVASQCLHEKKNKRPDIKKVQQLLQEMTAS
Briefly: biochemical.
Conditions: not given
Broadly, the IC50 is the concentration needed to halve the response being measured. Low values mean higher potency, high ones lower potency. `Cn1ccc(NC(=O)c2cn3cc(C45COC(C)(C4)C5)nc3cc2OC2CCCC2)n1` [Example 449, 7-(Cyclopentyloxy)-N-(1-methyl-1H-pyrazol-3-yl)-2-(1-methyl-2-oxabicyclo[2.1.1]hexan-4-yl)imidazo[1,2-a]pyridine-6-carboxamide] displayed a half-inhibitory concentration (IC50) of 0.0015 µM. This counts as single-digit nanomolar. In turn, `CC12CC(c3cn4cc(C(=O)Nc5cccn(C(F)F)c5=O)c(OCC5CC5(F)F)cc4n3)(CO1)C2` (stereo not drawn) [Example 452, 7-((2,2-Difluorocyclopropyl)methoxy)-N-(1-(difluoromethyl)-2-oxo-1,2-dihydropyridin-3-yl)-2-(1-methyl-2-oxabicyclo[2.1.1]hexan-4-yl)imidazo[1,2-a]pyridine-6-carboxamide] gave an IC50 of 0.0008 µM.

In turn, `CC(C)COc1cc2nc(C34COC(C)(C3)C4)cn2cc1C(=O)Nc1cccn(C(F)F)c1=O` [Example 453, N-(1-(difluoromethyl)-2-oxo-1,2-dihydropyridin-3-yl)-7-isobutoxy-2-(1-methyl-2-oxabicyclo[2.1.1]hexan-4-yl)imidazo[1,2-a]pyridine-6-carboxamide] displayed an IC50 of 0.0007 µM.

The compound `CC12CC(c3cn4cc(C(=O)Nc5cccn(C(F)F)c5=O)c(OC5CCOCC5)cc4n3)(CO1)C2` [Example 454, N-(1-(difluoromethyl)-2-oxo-1,2-dihydropyridin-3-yl)-2-(1-methyl-2-oxabicyclo[2.1.1]hexan-4-yl)-7-((tetrahydro-2H-pyran-4-yl)oxy)imidazo[1,2-a]pyridine-6-carboxamide] gave a concentration for half-maximal inhibition (IC50) of 0.0024 µM. This IC50 is about 3.4-fold higher than that of the compound before. Same read-out and setting: the same measure for `CC12CC(c3cn4cc(C(=O)Nc5cccn(C(F)F)c5=O)c(OC5CC(F)(F)C5)cc4n3)(CO1)C2` [Example 455, 7-(3,3-Difluorocyclobutoxy)-N-(1-(difluoromethyl)-2-oxo-1,2-dihydropyridin-3-yl)-2-(1-methyl-2-oxabicyclo[2.1.1]hexan-4-yl)imidazo[1,2-a]pyridine-6-carboxamide]: 0.0012 µM. Still for that read-out and setting: the same measure for `CC12CC(c3cn4cc(C(=O)Nc5cccn(C(F)F)c5=O)c(OC5CCCC5)cc4n3)(CO1)C2` [Example 457, 7-(Cyclopentyloxy)-N-(1-(difluoromethyl)-2-oxo-1,2-dihydropyridin-3-yl)-2-(1-methyl-2-oxabicyclo[2.1.1]hexan-4-yl)imidazo[1,2-a]pyridine-6-carboxamide]: 0.0002 µM. Same read-out and setting: the same measure for `O=C(Nc1cccn(C(F)F)c1=O)c1cn2cc(C3CC3)nc2cc1OC1CCCC1` [Example 458, 7-(Cyclopentyloxy)-2-cyclopropyl-N-(1-(difluoromethyl)-2-oxo-1,2-dihydropyridin-3-yl)imidazo[1,2-a]pyridine-6-carboxamide]: 0.0019 µM; for `O=C(Nc1cccn(C(F)F)c1=O)c1cn2cc(C3CC3)nc2cc1OC1CCOC1` (stereo not drawn) [Example 459, 2-Cyclopropyl-N-(1-(difluoromethyl)-2-oxo-1,2-dihydropyridin-3-yl)-7-((tetrahydrofuran-3-yl)oxy)imidazo[1,2-a]pyridine-6-carboxamide]: 0.0084 µM.

In turn, `CC1(C)CC(Oc2cc3nc(C4CC4)cn3cc2C(=O)Nc2cccn(C(F)F)c2=O)C1` [Example 460, 2-Cyclopropyl-N-(1-(difluoromethyl)-2-oxo-1,2-dihydropyridin-3-yl)-7-(3,3-dimethylcyclobutoxy)imidazo[1,2-a]pyridine-6-carboxamide] registered an IC50 of 0.0099 µM. Regarding `COc1ncccc1NC(=O)c1cn2cc(C3CC3)nc2cc1OC1CCC1` [Example 462, 7-Cyclobutoxy-2-cyclopropyl-N-(2-methoxypyridin-3-yl)imidazo[1,2-a]pyridine-6-carboxamide], the IC50 turned out to be 0.0032 µM. Compared with the last compound, the IC50 is about 3.1-fold lower. The same measure, in the same setting: the same measure for `COc1cccc(NC(=O)c2cn3cc(C4CC4)nc3cc2OC2CCC2)n1` [Example 463, 7-Cyclobutoxy-2-cyclopropyl-N-(6-methoxypyridin-2-yl)imidazo[1,2-a]pyridine-6-carboxamide]: 0.0057 µM. `COc1ncccc1NC(=O)c1cn2cc(C3CC3)nc2cc1OC1CCCC1` [Example 464, 7-(Cyclopentyloxy)-2-cyclopropyl-N-(2-methoxypyridin-3-yl)imidazo[1,2-a]pyridine-6-carboxamide] returned an IC50 of 0.0081 µM. On the same count and under the same terms, the same measure for `COc1cccc(NC(=O)c2cn3cc(C4CC4)nc3cc2OC2CCCC2)n1` [Example 465, 7-(Cyclopentyloxy)-2-cyclopropyl-N-(6-methoxypyridin-2-yl)imidazo[1,2-a]pyridine-6-carboxamide]: 0.0079 µM; for `CC(C)COc1cc2nc(C3CC3)cn2cc1C(=O)Nc1cccc(C(F)F)n1` [Example 466, 2-Cyclopropyl-N-(6-(difluoromethyl)pyridin-2-yl)-7-isobutoxyimidazo[1,2-a]pyridine-6-carboxamide]: 0.0057 µM.

The compound `O=C(Nc1cccc(C(F)F)n1)c1cn2cc(C3CC3)nc2cc1OC1CCCC1` [Example 467, 7-(Cyclopentyloxy)-2-cyclopropyl-N-(6-(difluoromethyl)pyridin-2-yl)imidazo[1,2-a]pyridine-6-carboxamide] showed an IC50 of 0.001 µM.

The same assay, now with this note: IRAK4 Biochemical Assay (1 mM ATP, 2 h) IC50 (μM), 1 mM ATP, 2 h, 100 pM IRAK4.
`CC1(C)CC(Oc2cc3nc(C45COC(C)(C4)C5)cn3cc2C(=O)Nc2cccn(C(F)F)c2=O)CO1` (stereo not drawn) [Example 447, N-(1-(difluoromethyl)-2-oxo-1,2-dihydropyridin-3-yl)-7-((5,5-dimethyltetrahydrofuran-3-yl)oxy)-2-(1-methyl-2-oxabicyclo[2.1.1]hexan-4-yl)imidazo[1,2-a]pyridine-6-carboxamide] had an IC50 of 0.0014 µM. This lies in the single-digit nanomolar range. On the same count and under the same terms, for `CC12CC(c3cn4cc(C(=O)Nc5cccn(C(F)F)c5=O)c(OCC5CC(F)(F)C5)cc4n3)(CO1)C2` [Example 448, 7-((3,3-Difluorocyclobutyl)methoxy)-N-(1-(difluoromethyl)-2-oxo-1,2-dihydropyridin-3-yl)-2-(1-methyl-2-oxabicyclo[2.1.1]hexan-4-yl)imidazo[1,2-a]pyridine-6-carboxamide] the value was 0.0013 µM; for `CC12CC(c3cn4cc(C(=O)Nc5cccn(C(F)F)c5=O)c(OC5CC(C(F)F)C5)cc4n3)(CO1)C2` (stereo not drawn) [Example 450, N-(1-(difluoromethyl)-2-oxo-1,2-dihydropyridin-3-yl)-7-(3-(difluoromethyl)cyclobutoxy)-2-(1-methyl-2-oxabicyclo[2.1.1]hexan-4-yl)imidazo[1,2-a]pyridine-6-carboxamide], 0.0003 µM. Still for that read-out and setting: the same measure for `Cn1ccc(NC(=O)c2cn3cc(C45COC(C)(C4)C5)nc3cc2OC2CC(C(F)F)C2)n1` (stereo not drawn) [Example 451, 7-(3-(Difluoromethyl)cyclobutoxy)-N-(1-methyl-1H-pyrazol-3-yl)-2-(1-methyl-2-oxabicyclo[2.1.1]hexan-4-yl)imidazo[1,2-a]pyridine-6-carboxamide]: 0.0065 µM; for `CC12CC(c3cn4cc(C(=O)Nc5cccn(C(F)F)c5=O)c(OCC5(F)CCOCC5)cc4n3)(CO1)C2` [Example 456, N-(1-(difluoromethyl)-2-oxo-1,2-dihydropyridin-3-yl)-7-((4-fluorotetrahydro-2H-pyran-4-yl)methoxy)-2-(1-methyl-2-oxabicyclo[2.1.1]hexan-4-yl)imidazo[1,2-a]pyridine-6-carboxamide]: 0.0071 µM; for `O=C(Nc1cccn(C(F)F)c1=O)c1cn2cc(C3CC3)nc2cc1OC1CC(C(F)F)C1` (stereo not drawn) [Example 461, 2-Cyclopropyl-N-(1-(difluoromethyl)-2-oxo-1,2-dihydropyridin-3-yl)-7-(3-(difluoromethyl)cyclobutoxy)imidazo[1,2-a]pyridine-6-carboxamide]: 0.0072 µM.
